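Exposure lasted 48 hours, with cells grown in 96-well plates and compounds tested at five concentrations. At the GI50, growth is halved.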 Activity calls are given as the source filed them. Cut-off read from the data, not from the text of the source: active = GI50 up to about 1.1 µM and inactive = higher.
What was measured:
Test in all cases: NCI tumour cell line growth inhibition, 48 h
HOP-92 = tested on: HOP-92
HT-29 = tested on: HT-29
M14 = tested on: M14
Malme-3M = tested on: Malme-3M
NCI-H460 = tested on: NCI-H460
NCI-H522 = tested on: NCI-H522
OVCAR-3 = tested on: OVCAR-3
OVCAR-4 = tested on: OVCAR-4
SF-539 = tested on: SF-539
SK-MEL-28 = tested on: SK-MEL-28
SK-MEL-2 = tested on: SK-MEL-2
SK-OV-3 = tested on: SK-OV-3
SN12C = tested on: SN12C
SW-620 = tested on: SW-620
TK-10 = tested on: TK-10
RXF 393 = tested on: RXF 393

Measured: GI50

N#Cc1nc(Nc2cccc3ccccc23)sc1N
inactive: HOP-92 21.1 µM | HT-29 41.1 µM | M14 39.9 µM | Malme-3M 26.2 µM | NCI-H460 35 µM | NCI-H522 15.9 µM | OVCAR-3 44.6 µM | OVCAR-4 57.7 µM | SF-539 23.2 µM | SK-MEL-28 37.9 µM | SK-MEL-2 28.5 µM | SK-OV-3 38 µM | SN12C 14.1 µM | SW-620 41.2 µM | TK-10 40.6 µM

C/C(=N\NC(C)(C)C)c1sc(-c2nc(C)c(/C(C)=N/NC(C)(C)C)s2)nc1C
inactive: HOP-92 > 100 µM | HT-29 > 100 µM | M14 > 100 µM | Malme-3M > 100 µM | NCI-H522 > 100 µM | OVCAR-3 > 100 µM | OVCAR-4 > 100 µM | RXF 393 > 100 µM | SF-539 > 100 µM | SK-MEL-28 > 100 µM | SK-OV-3 > 100 µM | SN12C > 100 µM | SW-620 > 100 µM

Cc1ccc(SC2C(C)(C)N(C(C)C)P2(=O)N(C(C)C)C(C)C)cc1 (stereo not drawn)
inactive: HOP-92 5.58 µM | HT-29 26 µM | M14 71.4 µM | Malme-3M > 32.3 µM | NCI-H460 27.5 µM | NCI-H522 20.5 µM | OVCAR-3 55.5 µM | OVCAR-4 > 64.9 µM | SF-539 > 88.9 µM | SK-MEL-28 > 95.7 µM | SK-MEL-2 67 µM | SK-OV-3 > 100 µM | SN12C 38.6 µM | SW-620 > 25.5 µM | TK-10 > 100 µM

Cc1cc(C)c(/C=N/NS(=O)(=O)c2ccccc2)c(C)c1
inactive: HOP-92 36.3 µM | HT-29 > 100 µM | M14 > 100 µM | Malme-3M > 100 µM | NCI-H460 59.4 µM | OVCAR-3 47.6 µM | OVCAR-4 > 100 µM | RXF 393 44.9 µM | SF-539 66.8 µM | SK-MEL-28 > 100 µM | SK-MEL-2 > 100 µM | SK-OV-3 > 100 µM | SN12C 92.3 µM | SW-620 > 100 µM | TK-10 > 100 µM

C=C1C(=O)O[C@H]2[C@H]1[C@H](OC(=O)/C(C)=C\C)CC(=C)[C@@H]1[C@H](O)[C@H]3O[C@@]3(C)[C@@]12O [EUPATUNDIN]
inactive: HOP-92 > 100 µM | HT-29 > 100 µM | M14 > 100 µM | Malme-3M > 100 µM | NCI-H460 > 100 µM | NCI-H522 > 100 µM | OVCAR-3 > 100 µM | OVCAR-4 > 100 µM | SF-539 > 100 µM | SK-MEL-28 > 100 µM | SK-MEL-2 > 100 µM | SK-OV-3 > 100 µM | SN12C > 100 µM | SW-620 > 100 µM | TK-10 > 100 µM

Source: ChEMBL document CHEMBL1201862, “PubChem BioAssay data set” (2004)
